The values that follow come from ChEMBL document CHEMBL6134905, “Double Swords in One: Novel Selective PI3K/110β PROTAC Degraders for the Treatment of Multidrug-Resistant Cancer by Activating ERS and Inhibiting P-gp” (J Med Chem, 2025).

Active and inactive are the calls of the source. The rule behind the calls is not given here. Residues, ends and D or L forms follow the SMILES beside them. *: point of attachment. Cbz = O=C(OCc1ccccc1)*; CH2F = FC*

Assay [1] has as its target T1, von Hippel-Lindau disease tumor suppressor/Phosphatidylinositol 4,5-bisphosphate 3-kinase catalytic subunit beta isoform (Homo sapiens, UniProt P42338+P40337). Description: PROTAC activity at PI3K-p110beta/VHL in human A549/DDP cells assessed as induction of PI3K-p110beta degradation at 25 uM incubated for 24 hrs by Western blot analysis. The format is cell-based.

Assay [2] concerns the target T1, von Hippel-Lindau disease tumor suppressor/Phosphatidylinositol 4,5-bisphosphate 3-kinase catalytic subunit beta isoform. Description: PROTAC activity at PI3K-p110beta/VHL in human A549/DDP cells assessed as induction of PI3K-p110beta degradation at 2.5 uM incubated for 24 hrs by Western blot analysis. The format is cell-based.
The target is the same in assay [3]. Description: PROTAC activity at PI3K-p110beta/VHL in human MCF7/ADM cells assessed as induction of PI3K-p110beta degradation at 2.5 uM incubated for 24 hrs by Western blot analysis. The format is cell-based.
Assay [4] shares this target. Description: PROTAC activity at PI3K-p110beta/VHL in human MCF7/ADM cells assessed as induction of PI3K-p110beta degradation at 25 uM incubated for 24 hrs by Western blot analysis. Format: cell-based. (A western blot detects proteins with antibodies after separation by electrophoresis.)
Assay [5] deals with A549/CDDP. Description: Activation of unfolded protein response in human A549/DDP cells at 25 uM incubated for 24 hrs by PROTEOSTATR aggresome dye based fluorescent microscopy. Format: functional, cell-based.
In assay [6] the target is T1, von Hippel-Lindau disease tumor suppressor/Phosphatidylinositol 4,5-bisphosphate 3-kinase catalytic subunit beta isoform. Description: PROTAC activity at PI3K-p110beta/VHL in human MCF7/ADM cells assessed as reduction in PI3K-p110beta mRNA level at 25 uM measured for 24 hrs by qRT-PCR analysis. Format: cell-based.
Assay [7] has as its system MCF7/ADM. Description: Antitumor activity against human MCF7/ADM cells xenografted in BALB/c mouse assessed as reduction in tumor volume at 50 mg/kg, ip measured every 2 days. Format: functional, organism-based. Particulars: time 2.0 day. In general terms: In xenograft studies the graft and the host belong to different species.
Assay [8] can be described thus: Antitumor activity against human MCF7/ADM cells assessed as cell viability incubated for 24 hrs by MTT assay. The format is functional, cell-based.
For assay [9], the system named is A549/CDDP. Description: Antitumor activity against human A549/DDP cells assessed as cell viability incubated for 24 hrs by MTT assay. Format: functional, cell-based. (In general: Tetrazolium dyes change colour on reduction, which living cells bring about.)
Assay [10] addresses T1, von Hippel-Lindau disease tumor suppressor/Phosphatidylinositol 4,5-bisphosphate 3-kinase catalytic subunit beta isoform. Description: PROTAC activity at PI3K-p110beta/VHL in human MCF7/ADM cells assessed as reduction in PI3K-p110beta level at 25 uM measured for 24 hrs by Western blot analysis. The format is cell-based.
The target is the same in assay [11]. Description: PROTAC activity at PI3K-p110beta/VHL in human A549/DDP cells assessed as reduction in PI3K-p110beta level at 25 uM measured for 24 hrs by Western blot analysis. The format is cell-based.
Assay [12] has the same target. Description: PROTAC activity at PI3K-p110beta/VHL in human A549/DDP cells assessed as reduction in PI3K-p110beta mRNA level at 25 uM measured for 24 hrs by qRT-PCR analysis. The format is cell-based.
A further assay concerns A549. Description: Antitumor activity against human A549 cells assessed as cell viability incubated for 24 hrs by MTT assay. The format is functional, cell-based. Particulars: A549, 24 h.
For a further assay, the system named is MCF7. Description: Antitumor activity against human MCF7 cells assessed as cell viability incubated for 24 hrs by MTT assay. The format is functional, cell-based. As to conditions: MCF7, 24 h.
A short description of assay [13]: Induction of apoptosis in human MCF7/ADM cells at 25 uM incubated for 24 hrs by Annexin V-FITC/PI staining based flow cytometry analysis (reference value: 5.20%). The format is functional.
The subject of assay [14] is MCF7/ADM. Description: Induction of cell death in human MCF-7/ADM cells at 25 uM incubated for 24 hrs. The format is functional, cell-based.
The subject of assay [15] is A549/CDDP. Description: Induction of apoptosis in human A549/DDP cells at 25 uM incubated for 24 hrs by Annexin V-FITC/PI staining based flow cytometry analysis (reference value: 4.27%). The format is functional.
The subject of assay [16] is A549/CDDP. Description: Induction of cell death in human A549/DDP cells at 25 uM incubated for 24 hrs. Format: functional, cell-based.

T1 sequence (P40337 whole entry, looked up, canonical isoform): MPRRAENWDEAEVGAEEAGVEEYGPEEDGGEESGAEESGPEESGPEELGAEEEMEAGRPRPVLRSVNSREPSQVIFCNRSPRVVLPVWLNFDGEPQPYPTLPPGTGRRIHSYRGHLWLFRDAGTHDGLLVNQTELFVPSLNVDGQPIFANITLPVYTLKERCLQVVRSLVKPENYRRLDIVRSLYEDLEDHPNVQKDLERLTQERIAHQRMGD
T1 sequence (P42338 whole entry, looked up, canonical isoform): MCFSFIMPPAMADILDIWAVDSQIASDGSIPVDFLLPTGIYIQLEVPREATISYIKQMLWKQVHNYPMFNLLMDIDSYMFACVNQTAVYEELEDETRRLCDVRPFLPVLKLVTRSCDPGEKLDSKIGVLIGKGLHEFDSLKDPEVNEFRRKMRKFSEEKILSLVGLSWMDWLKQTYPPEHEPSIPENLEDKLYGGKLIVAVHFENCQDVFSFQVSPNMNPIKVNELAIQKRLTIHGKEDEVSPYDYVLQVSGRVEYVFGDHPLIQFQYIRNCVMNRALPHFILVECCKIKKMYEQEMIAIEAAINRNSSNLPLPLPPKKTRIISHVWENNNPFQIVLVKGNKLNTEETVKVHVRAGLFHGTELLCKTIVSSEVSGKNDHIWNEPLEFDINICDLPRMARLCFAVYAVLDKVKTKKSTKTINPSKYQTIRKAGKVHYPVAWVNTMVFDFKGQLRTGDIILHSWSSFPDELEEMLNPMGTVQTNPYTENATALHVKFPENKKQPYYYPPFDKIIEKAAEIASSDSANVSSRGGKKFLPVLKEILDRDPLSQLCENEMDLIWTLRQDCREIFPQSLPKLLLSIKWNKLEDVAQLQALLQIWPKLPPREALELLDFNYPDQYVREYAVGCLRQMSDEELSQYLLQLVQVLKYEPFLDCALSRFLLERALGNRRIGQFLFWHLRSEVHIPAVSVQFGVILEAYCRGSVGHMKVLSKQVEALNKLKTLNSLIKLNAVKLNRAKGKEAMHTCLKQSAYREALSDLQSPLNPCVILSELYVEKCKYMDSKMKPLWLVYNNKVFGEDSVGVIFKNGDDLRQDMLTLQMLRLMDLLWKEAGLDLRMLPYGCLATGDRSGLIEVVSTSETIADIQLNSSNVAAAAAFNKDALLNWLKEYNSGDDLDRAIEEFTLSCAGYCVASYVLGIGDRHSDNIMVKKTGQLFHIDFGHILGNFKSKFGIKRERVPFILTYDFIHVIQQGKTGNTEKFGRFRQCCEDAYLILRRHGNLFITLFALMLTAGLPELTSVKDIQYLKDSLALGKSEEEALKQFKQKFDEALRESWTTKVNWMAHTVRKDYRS

Regarding `Cc1cc(C(C)Nc2ccccc2C(=O)NCCC(=O)N[C@H](C(=O)N2C[C@H](O)C[C@H]2C(=O)NCc2ccc(-c3scnc3C)cc2)C(C)(C)C)c2nc(N3CCOCC3)cc(=O)n2c1` (some centres not stated), the result in [1], in assay [2], in [3] and in [4] was Active.
Take `Cc1cc(C(C)Nc2ccccc2C(=O)NCCCCCC(=O)N[C@H](C(=O)N2C[C@H](O)C[C@H]2C(=O)NCc2ccc(-c3scnc3C)cc2)C(C)(C)C)c2nc(N3CCOCC3)cc(=O)n2c1` (some centres not stated): the outcome in assay [1], in assay [2], in [3] and in [4] was Active.
Regarding `O=c1cc(N2CCOCC2)oc2c(-c3ccccc3)cccc12`, the outcome with A549/CDDP [5] was Active.
In the case of `Cc1cc(C(C)Nc2ccccc2C(=O)NCCCCCCCC(=O)N[C@H](C(=O)N2C[C@H](O)C[C@H]2C(=O)NCc2ccc(-c3scnc3C)cc2)C(C)(C)C)c2nc(N3CCOCC3)cc(=O)n2c1` (some centres not stated), the result in [1], in [2], in assay [3] and in assay [4] was Active.
For the molecule `N#CSc1cc(SC#N)c(N)nc1N`, the result in the assay with A549/CDDP [5] was Active.
For `Cc1cc(C(C)Nc2ccccc2C(=O)NCCCCCCCCCCC(=O)N[C@H](C(=O)N2C[C@H](O)C[C@H]2C(=O)NCc2ccc(-c3scnc3C)cc2)C(C)(C)C)c2nc(N3CCOCC3)cc(=O)n2c1` (some centres not stated), the outcome in [1], in [2], in [3] and in assay [4] was Active.
For `Cc1cc(C(C)Nc2ccccc2)c2nc(N3CCOCC3)cc(=O)n2c1` (configuration not stated), the outcome (in [6]; in the assay on MCF7/ADM [7]) was Active. The IC50 is 50.8 µM in assay [8], 57.9 µM in the assay with A549/CDDP [9], 88.3 µM with A549 and 75.1 µM in the assay on MCF7. Also, the outcome in assay [10], in [11] and in assay [12] was inactive.
With `C[C@H](CCC(=O)NCCS(=O)(=O)O)[C@H]1CC[C@H]2[C@@H]3[C@@H](O)C[C@@H]4C[C@H](O)CC[C@]4(C)[C@H]3CC[C@]12C` [TAURURSODIOL], the figures for the Activity (in assay [13]; with A549/CDDP [15]) were 21.48% and 18.57%, respectively. For the same molecule, the result with MCF7/ADM [14] and in the assay on A549/CDDP [16] was Active.
Turning to `Cc1cc(C(C)Nc2ccccc2C(=O)NCCCC(=O)N[C@H](C(=O)N2C[C@H](O)C[C@H]2C(=O)NCc2ccc(-c3scnc3C)cc2)C(C)(C)C)c2nc(N3CCOCC3)cc(=O)n2c1` (some centres not stated), the outcome in assay [1], in [2], in [3] and in assay [4] was Active.
Consider `CC(C)[C@H](NC(=O)OCc1ccccc1)C(=O)N[C@@H](C)C(=O)N[C@@H](CC(=O)O)C(=O)CF` (Cbz-Val-Ala-Asp-CH2F), for which the outcome in the assay with MCF7/ADM [14] and in the assay with A549/CDDP [16] was Active.

The term IC50 denotes the concentration needed to halve the response being measured.
